Measurements taken from patent US20260216063A1, “METHODS OF SUPPRESSING FREE DNA AND COMPOSITIONS THEREOF” (PS Therapy, Inc., priority 2023, published 2026).

How the values were obtained:
[1] = system: TNF-alpha; assay: TNF-alpha ELISA in differentiated THP-1 cells infected with P. aeruginosa DNA; format: cell-based, human; settings: 6 micrograms P. aeruginosa DNA, 24 hours post infection; DNA alone 1,200
Procedure: 3 sets of differentiated THP-1 cells were infected with 6 micrograms of […], 6 micrograms of P. aeruginosa DNA and composition A from Table 1, above, 6 micrograms of P. aeruginosa DNA and moxifloxacin, or 6 micrograms of P. aeruginosa DNA, moxifloxacin and composition A. 24 hours post infection the cells were assayed for TNF-alpha protein levels via ELISA. Results of this study can be found in FIGS. 3A and 3B.

[2] = system: free DNA; assay: Free DNA binding, ethidium bromide displacement assay; settings: incubated with free DNA in a petri dish
Procedure: Voriconazole, moxifloxacin, composition A from Table 1, above, a combination of voriconazole and composition A and a combination of moxifloxacin and composition A were each individually incubated with free DNA in a petri dish with and without the addition of voriconazole or moxifloxacin. The percentage of free DNA bound was measured using an ethidium bromide displacement assay. See results in FIG. 1.
Compositions #1-3 from Table 1, above, were each individually incubated with free DNA in a petri dish at concentrations of 1% and 10% in PBS buffer. The percentage of free DNA bound was measured using an ethidium bromide displacement assay.

[3] = system: TNF-alpha; assay: TNF-alpha ELISA in differentiated THP-1 cells infected with A. flavus DNA; format: cell-based, human; settings: 6 micrograms A. flavus DNA, 24 hours post infection; DNA alone 180
Source text: Tumor Necrosis Factor alpha secretion (“TNF-alpha”) is a marker for DNA-induced inflammation. See, Campbell et al., CpG-containing immunostimulatory DNA sequences elicit TNF-alpha-dependent toxicity in rodents but not in humans, 2009, J Clin Invest, 119(9), 2564-2576. 3 sets of differentiated human leukemia monocytic (“differentiated THP-1”) cells were infected with 6 micrograms of A. flavus DNA, 6 micrograms of A. flavus DNA and composition A, 6 micrograms of A. flavus DNA and voriconazole, or 6 micrograms of A. flavus DNA, voriconazole and composition A. 24 hours post infection the cells were assayed for TNF-alpha protein levels via enzyme-linked immunosorbent assays (“ELISA”). Results of this study can be found in FIGS. 2A and 2B.
6 sets of differentiated THP-1 cells were infected with 1) nothing, 2) lipofectamine™ 2000 transfectin reagent, 3) 6 micrograms of A. flavus DNA, 4) 6 micrograms of A. flavus DNA and composition #1 from Table 1, above, 5) 6 micrograms of A. flavus DNA and composition #2 from Table 1, above, 6) 6 micrograms of A. flavus DNA and composition #3 from Table 1, above. 24 hours post infection the cells were assayed for TNF-alpha protein levels via ELISA.

Compound	TNF-alpha protein levels [1] [picograms per milliliter]	percentage of free DNA bound [2] [%]	TNF-alpha protein levels [3] [picograms per milliliter]
COc1c(N2C[C@@H]3CCCN[C@@H]3C2)c(F)cc2c(=O)c(C(=O)O)cn(C3CC3)c12 [moxifloxacin]	450	–	–
C[C@@H](c1ncncc1F)[C@](O)(Cn1cncn1)c1ccc(F)cc1F [voriconazole]	–	0	85
